According to patent publication US10947574B2, “Method for producing fermented carotenoid using carotenoid-producing bacteria obtained by using cobalt-containing culturing medium” (ENEOS CORPORATION, priority 2015, dated 2021):

System: Paracoccus carotinifaciens strain E-396 (FERM BP-4283)
Test: Example 3: cobalt concentration series, growth (OD610) and carotenoid levels (HPLC)
Assay type: cell-based
Protocol: In the following examples, carotenoids were quantified by high performance liquid chromatography (HPLC) as follows.
Two columns of Inertsil SIL-100A, 5 μm (ϕ4.6 mm×250 mm) (GL Sciences Inc., Japan) were connected together for use as a column. For elution, a mixed solution of n-hexane, tetrahydrofuran and methanol (40:20:1) serving as a mobile phase was passed through the column at a flow rate of 1.0 mL per minute at a constant temperature around room temperature. For measurement, samples were each dissolved in tetrahydrofuran and diluted 100-fold with the mobile phase, and 20 μL aliquots of the resulting dilutions were injected into the column. The column eluates were detected at a wavelength of 470 nm. As a standard for quantification, astaxanthin (SIGMA, Cat. No. A9335) was used. The astaxanthin concentration of the standard solution was determined using the following equation after measuring the absorbance (A) of the standard solution at 477 nm and the area percentage % (B) of the astaxanthin peak in HPLC analysis under the above conditions.
Subsequently, a medium of the following composition (glucose 30 g/L, filtered corn steep liquor 30 g/L, ammonium sulfate 1.5 g/L, potassium dihydrogen phosphate 1.5 g/L, disodium hydrogen phosphate dodecahydrate 3.8 g/L, calcium chloride dihydrate 5.0 g/L, magnesium sulfate heptahydrate 0.7 g/L, iron sulfate heptahydrate 1.0 g/L, silicon-based defoaming agent 0.2 g/L) was dispensed in 7.2 ml volumes into cotton-plugged test tubes having an inner diameter of 18 mm to prepare 12 test tubes containing a test tube medium for production. The ingredients used to prepare the test tube medium for production were obtained from lots where microbial cells had been confirmed not to grow well.
The resulting culture solution was then inoculated in 0.05 ml volumes into the 12 types of test tube media for production having different cobalt concentrations, and cultured under shaking at 28° C. for 4 days at 300 spm.
The cobalt concentration in the cobalt chloride-free medium and the concentration of cobalt chloride added to each medium were summed up to calculate the concentration of cobalt present in each medium (Table 6).
After being cultured for 4 days, the culture solutions were each measured for microbial cell growth by OD610 and measure for carotenoid levels by HPLC. […] Moreover, FIGS. 2 to 4 show graphs plotted in enlarged scale for the high and low concentration ranges of cobalt present in the medium.

[1] = cobalt added 0.00042 μmol/L, present 0.0024 μmol/L
[2] = cobalt added 0.0042 μmol/L, present 0.0062 μmol/L
[3] = cobalt added 0.0084 μmol/L, present 0.0104 μmol/L
[4] = cobalt added 0.021 μmol/L, present 0.023 μmol/L
[5] = cobalt added 0.042 μmol/L, present 0.044 μmol/L
[6] = cobalt added 0.42 μmol/L, present 0.42 μmol/L
[7] = cobalt added 1.1 μmol/L, present 1.05 μmol/L
[8] = cobalt added 4.2 μmol/L, present 4.2 μmol/L
[9] = cobalt added 8.4 μmol/L, present 8.4 μmol/L
[10] = cobalt added 21 μmol/L, present 21 μmol/L
[11] = cobalt added 42 μmol/L, present 42 μmol/L

O.O.O.O.O.O.[Cl-].[Cl-].[Co+2] [Cobalt chloride hexahydrate]
Carotenoid: 3-Hydroxyechinenone [1]: 0.1 mg/L
Carotenoid: Adonirubin [1]: 0.0 mg/L
Carotenoid: Adonixanthin [1]: 3.0 mg/L
Carotenoid: Astaxanthin [1]: 0.8 mg/L
Carotenoid: Asteroidenone [1]: 0.1 mg/L
Carotenoid: Canthaxanthin [1]: 0.0 mg/L
Carotenoid: Echinenone [1]: 0.0 mg/L
Carotenoid: β-Carotene [1]: 0.2 mg/L
OD610 [1]: 5
Total carotenoid [1]: 4.1 mg/L
Carotenoid: 3-Hydroxyechinenone [2]: 0.3 mg/L
Carotenoid: Adonirubin [2]: 0.4 mg/L
Carotenoid: Adonixanthin [2]: 7.0 mg/L
Carotenoid: Astaxanthin [2]: 3.6 mg/L
Carotenoid: Asteroidenone [2]: 0.3 mg/L
Carotenoid: Canthaxanthin [2]: 0.1 mg/L
Carotenoid: Echinenone [2]: 0.2 mg/L
Carotenoid: β-Carotene [2]: 1.0 mg/L
OD610 [2]: 9
Total carotenoid [2]: 12.9 mg/L
Carotenoid: 3-Hydroxyechinenone [3]: 0.4 mg/L
Carotenoid: Adonirubin [3]: 1.3 mg/L
Carotenoid: Adonixanthin [3]: 4.0 mg/L
Carotenoid: Astaxanthin [3]: 11.7 mg/L
Carotenoid: Asteroidenone [3]: 0.4 mg/L
Carotenoid: Canthaxanthin [3]: 0.9 mg/L
Carotenoid: Echinenone [3]: 0.4 mg/L
Carotenoid: β-Carotene [3]: 1.1 mg/L
OD610 [3]: 18
Total carotenoid [3]: 20.2 mg/L
Carotenoid: 3-Hydroxyechinenone [4]: 0.5 mg/L
Carotenoid: Adonirubin [4]: 8.3 mg/L
Carotenoid: Adonixanthin [4]: 3.1 mg/L
Carotenoid: Astaxanthin [4]: 26.5 mg/L
Carotenoid: Asteroidenone [4]: 0.4 mg/L
Carotenoid: Canthaxanthin [4]: 3.4 mg/L
Carotenoid: Echinenone [4]: 1.4 mg/L
Carotenoid: β-Carotene [4]: 1.0 mg/L
OD610 [4]: 34
Total carotenoid [4]: 44.5 mg/L
Carotenoid: 3-Hydroxyechinenone [5]: 0.5 mg/L
Carotenoid: Adonirubin [5]: 6.4 mg/L
Carotenoid: Adonixanthin [5]: 3.5 mg/L
Carotenoid: Astaxanthin [5]: 25.5 mg/L
Carotenoid: Asteroidenone [5]: 0.4 mg/L
Carotenoid: Canthaxanthin [5]: 2.6 mg/L
Carotenoid: Echinenone [5]: 1.2 mg/L
Carotenoid: β-Carotene [5]: 0.8 mg/L
OD610 [5]: 35
Total carotenoid [5]: 40.9 mg/L
Carotenoid: 3-Hydroxyechinenone [6]: 0.7 mg/L
Carotenoid: Adonirubin [6]: 5.8 mg/L
Carotenoid: Adonixanthin [6]: 3.2 mg/L
Carotenoid: Astaxanthin [6]: 28.6 mg/L
Carotenoid: Asteroidenone [6]: 0.5 mg/L
Carotenoid: Canthaxanthin [6]: 2.3 mg/L
Carotenoid: Echinenone [6]: 1.2 mg/L
Carotenoid: β-Carotene [6]: 0.8 mg/L
OD610 [6]: 37
Total carotenoid [6]: 42.9 mg/L
Carotenoid: 3-Hydroxyechinenone [7]: 0.4 mg/L
Carotenoid: Adonirubin [7]: 7.0 mg/L
Carotenoid: Adonixanthin [7]: 1.7 mg/L
Carotenoid: Astaxanthin [7]: 26.8 mg/L
Carotenoid: Asteroidenone [7]: 0.3 mg/L
Carotenoid: Canthaxanthin [7]: 3.1 mg/L
Carotenoid: Echinenone [7]: 1.2 mg/L
Carotenoid: β-Carotene [7]: 0.8 mg/L
OD610 [7]: 37
Total carotenoid [7]: 41.3 mg/L
Carotenoid: 3-Hydroxyechinenone [8]: 0.2 mg/L
Carotenoid: Adonirubin [8]: 14.3 mg/L
Carotenoid: Adonixanthin [8]: 0.7 mg/L
Carotenoid: Astaxanthin [8]: 14.2 mg/L
Carotenoid: Asteroidenone [8]: 0.1 mg/L
Carotenoid: Canthaxanthin [8]: 8.1 mg/L
Carotenoid: Echinenone [8]: 1.4 mg/L
Carotenoid: β-Carotene [8]: 0.7 mg/L
OD610 [8]: 33
Total carotenoid [8]: 39.7 mg/L
Carotenoid: 3-Hydroxyechinenone [9]: 0.1 mg/L
Carotenoid: Adonirubin [9]: 11.9 mg/L
Carotenoid: Adonixanthin [9]: 0.3 mg/L
Carotenoid: Astaxanthin [9]: 9.3 mg/L
Carotenoid: Asteroidenone [9]: 0.1 mg/L
Carotenoid: Canthaxanthin [9]: 9.9 mg/L
Carotenoid: Echinenone [9]: 2.0 mg/L
Carotenoid: β-Carotene [9]: 0.8 mg/L
OD610 [9]: 31
Total carotenoid [9]: 34.4 mg/L
Carotenoid: 3-Hydroxyechinenone [10]: 0.1 mg/L
Carotenoid: Adonirubin [10]: 6.5 mg/L
Carotenoid: Adonixanthin [10]: 0.2 mg/L
Carotenoid: Astaxanthin [10]: 1.9 mg/L
Carotenoid: Asteroidenone [10]: 0.1 mg/L
Carotenoid: Canthaxanthin [10]: 9.4 mg/L
Carotenoid: Echinenone [10]: 2.8 mg/L
Carotenoid: β-Carotene [10]: 1.2 mg/L
OD610 [10]: 23
Total carotenoid [10]: 22.2 mg/L
Carotenoid: 3-Hydroxyechinenone [11]: 0.0 mg/L
Carotenoid: Adonirubin [11]: 0.2 mg/L
Carotenoid: Adonixanthin [11]: 0.0 mg/L
Carotenoid: Astaxanthin [11]: 0.1 mg/L
Carotenoid: Asteroidenone [11]: 0.0 mg/L
Carotenoid: Canthaxanthin [11]: 0.1 mg/L
Carotenoid: Echinenone [11]: 0.0 mg/L
Carotenoid: β-Carotene [11]: 0.0 mg/L
OD610 [11]: 3
Total carotenoid [11]: 0.4 mg/L
